Results from US20060258755A1, “Preparation of sevoflurane with negligible water content” (priority 2005, published 2006).

How the values were obtained:
Type in all cases: physicochemical
[1] = Storage stability of sevoflurane in the presence of iron oxide (Fe2O3, a Lewis acid)
Description: A sample of sevoflurane containing 30 ppm of water and 0.05 g Fe2O3 (iron oxide) was placed in a new Type III amber glass bottle in July 2000 and sealed as previously described. […] This sample was sealed in September 2000 in a new Type III glass bottle as previously described and stored at 40° C. for four weeks.

[2] = Storage stability of sevoflurane stored with Type 3A molecular sieve in Type III glass
Excerpt: Another sample of sevoflurane (40 g) was stored with 2 g of Type 3A molecular sieve (an alumino silicate that contains Al2O3, identified as a Lewis acid in the '176 patent) in July 2000. This sample was in a new Type III glass container for six months at ambient temperatures.
Starting in July 2000, 40 g of sevoflurane (Abbott Laboratories Lot # 35-621 -DK-03) was stored in the presence of 2 g of Type 3A molecular sieve for 20 months in a dried, new Type III amber glass bottle at room temperature. The initial water content was 218 ppm and was essentially zero after 16 hours of contact with the molecular sieve (as determined by Karl Fischer, a method known to those skilled in the art with a detection limit of about 1 ppm or less).
Starting in July 2000, a sample of sevoflurane (from the lot described in Example 1) was held at room temperature (25-27° C.) over Type 3A molecular sieve for two-and-a-half months in a dried, new Type III amber glass bottle.

[3] = Water saturation limit of sevoflurane; details: second sample of Example 4 (28 g)
Description: Currently available processes for the preparation of sevoflurane generally give a product containing dissolved water up to 0.12 to 0.14 wt %, or 1200 to 1400 ppm, the approximate water saturation limit of sevoflurane. […] This sample was sealed in September 2000 in a new Type III glass bottle as previously described and stored at 40° C. for four weeks.

[4] = Storage stability of sevoflurane in Type III glass bottle (gas chromatography, Karl Fischer)
Description: In one experiment initiated in August 2000, sevoflurane (Abbott Laboratories, Lot #61-339-DK, Expiration Date Aug. 1, 2001) was dried to 0 ppm water content using Type 3A molecular sieve. Drying was performed by mixing the sevoflurane with molecular sieves and then allowing these materials to stand together for several hours. The water content was determined by Karl Fischer analysis. A sample of the dried sevoflurane was placed in a new amber Type III glass bottle, which had been dried at 100° C. for 2 hours. The bottle was sealed with a black phenolic/urea resin cap and a polyseal liner of polyethylene resin and shrink-wrapped or wrapped with Teflon® tape and shrink-wrapped. The sample was then held at room temperature (25-27° C.) and at ambient relative humidity. […] One undried lot of sevoflurane from Abbott Laboratories (Lot #0 335 70 K, Expiration Date Apr. 1, 1997, stored in a Type III bottle) was analyzed in May and October 2000. This sevoflurane was 97 ppm H2O and 99.9916% sevoflurane by gas chromatography.

[5] = Stability trial of sevoflurane dried over Type 3A molecular sieve, packaged in glass bottles or epoxy-lined drums; details: for decomposition / % sevoflurane by gas chromatography: dried to 0 ppm water, 30 days at 40° C. and 75% relative humidity; for % sevoflurane by gas chromatography: initial 99.99%
Description: (§1) Sevoflurane (99.99%, produced January 2005) was dried over Type 3A molecular sieve using a continuous flow bed apparatus to a water-composition of 0.0 wt % (or 0 ppm) as measured by Karl Fischer. 100 ml of sevoflurane was packaged into a Type III amber glass bottle and sealed for a 30-day stability trial at 40° C. and 75% relative humidity. At the end of this time, the sevoflurane was 99.99% as determined by gas chromatography.
as §1, with “water composition” for “water-composition”, “250” for “100”
Sevoflurane (99.99%, produced January 2005) was dried over Type 3A molecular sieve using a continuous flow bed apparatus to a water composition of 0.0 wt % (or 0 ppm) as measured by Karl Fischer. 28.1 kg of sevoflurane was packaged in a five-gallon epoxy-lined drum and sealed for a 30-day stability trial at 40° C. and 75% relative humidity. At the end of this time, the % sevoflurane was 99.99% as determined by gas chromatography.
Purified Sevoflurane was dried over Type 3A molecular sieve using a continuous flow bed apparatus to negligible or near-negligible water compositions as measured by Karl Fischer. The dried material was packaged into 100 mL or 250 mL Type III amber glass bottles or into 5 gal epoxy-lined drums and subsequently stored as part of a stability trial under controlled or ambient conditions.
The sevoflurane used in examples 8-11 was produced by the method described in pending U.S. patent application Ser. No. 11/281,293, filed Nov. 17, 2005, the disclosure of which is incorporated herein by reference.

[6] = 28 g saturated with water (1235 ppm), 0.07 g Fe2O3, new Type III glass bottle, 40° C. for four weeks
[7] = 30 ppm water, 0.05 g Fe2O3, new Type III amber glass bottle, four weeks at 40° C.
[8] = 40 g with 2 g Type 3A molecular sieve, new Type III glass container, six months at ambient temperatures
[9] = lot of Example 1 over Type 3A molecular sieve, dried, new Type III amber glass bottle, room temperature (25-27° C.), two-and-a-half months
[10] = undried Abbott Lot #0 335 70 K, 97 ppm H2O, Type III bottle, ambient temperature for about five years
[11] = 5 gal epoxy-lined drum, Mfg. April 2005, initial water 6 ppm, 60 days, 40 C./75% RH
[12] = 5 gal epoxy-lined drum, Mfg. April 2005, initial water 10 ppm, 9 months, Ambient
[13] = 5 gal epoxy-lined drum, Mfg. February 2005, initial water 0 ppm, 12 months, 40 C./75% RH
[14] = 5 gal epoxy-lined drum, Mfg. February 2005, initial water 0 ppm, 12 months, Ambient
[15] = 5 gal epoxy-lined drum, Mfg. January 2005, initial water 0 ppm, 6 months, 40 C./75% RH
[16] = 5 gal epoxy-lined drum, Mfg. January 2005, initial water 0 ppm, 90 days, Ambient
[17] = 100 mL Type III amber glass bottle, Mfg. February 2005, initial water 0 ppm, 9 months, 25 C./60% RH
[18] = 100 mL Type III amber glass bottle, Mfg. February 2005, initial water 0 ppm, 60 days, 40 C./75% RH
[19] = 250 mL Type III amber glass bottle, Mfg. April 2005, initial water 5 ppm, 6 months, 25 C./60% RH
[20] = 250 mL Type III amber glass bottle, Mfg. April 2005, initial water 5 ppm, 90 days, 40 C./75% RH
[21] = 250 mL Type III amber glass bottle, Mfg. February 2005, initial water 0 ppm, 9 months, 25 C./60% RH
[22] = 250 mL Type III amber glass bottle, Mfg. February 2005, initial water 0 ppm, 60 days, 40 C./75% RH
[23] = 250 mL Type III amber glass bottle, Mfg. January 2005, initial water 0 ppm, 12 months, 25 C./60% RH
[24] = 28.1 kg in five-gallon epoxy-lined drum
[25] = 100 ml in Type III amber glass bottle
[26] = 250 ml in Type III amber glass bottle

decomposition [1, 6]: no decomposition
purity by gas chromatography [1, 6]: 99.97%
% (CF3)2CHOCH2OCH(CF3)2 decomposition product by gas chromatographic analyses [1, 7]: 6.33%
% (CF3)2CHOH decomposition product by gas chromatographic analyses [1, 7]: 0.49%
% sevoflurane by gas chromatographic analyses [1, 7]: 90.7%
decomposition ([2]; 40 g Abbott Lot # 35-621 -DK-03 with 2 g Type 3A molecular sieve, dried, new Type III amber glass bottle, room temperature, 20 months): no evidence of any decomposition
% sevoflurane by gas chromatography ([2]; 40 g Abbott Lot # 35-621 -DK-03 with 2 g Type 3A molecular sieve, dried, new Type III amber glass bottle, room temperature, 20 months, initial water 218 ppm, essentially zero after 16 hours): 99.997%
% sevoflurane by gas chromatography [2, 8]: greater than 99.99%
decomposition [2, 8]: No decomposition
% sevoflurane by gas chromatography [2, 9]: greater than 99.99%
decomposition [2, 9]: no decomposition
water content of sevoflurane saturated with water [3]: 1235 ppm
% sevoflurane by gas chromatography ([4]; Abbott Lot #61-339-DK dried to 0 ppm water with Type 3A molecular sieve, new amber Type III glass bottle, room temperature (25-27° C.), ambient relative humidity, four weeks): 99.998%
water (Karl Fischer analysis) at end of stability run ([4]; Abbott Lot #61-339-DK dried to 0 ppm water, new amber Type III glass bottle, room temperature (25-27° C.), ambient relative humidity, four weeks): 68 ppm
decomposition ([4]; Abbott Lot #61-339-DK dried to 0 ppm water, new amber Type III glass bottle, room temperature (25-27° C.), four weeks): no decomposition
% sevoflurane by gas chromatography [4, 10]: 99.9916%
decomposition [4, 10]: without decomposition
Final Comp. [5, 11]: 99.998%
Result (decomposition) [5, 11]: No
Final Comp. [5, 12]: 99.998%
Result (decomposition) [5, 12]: No
Final Comp. [5, 13]: 99.98%
Result (decomposition) [5, 13]: No
Final Comp. [5, 14]: 99.98%
Result (decomposition) [5, 14]: No
Final Comp. [5, 15]: 99.98%
Result (decomposition) [5, 15]: No
Final Comp. [5, 16]: 99.99%
Result (decomposition) [5, 16]: No
Final Comp. [5, 17]: 99.98%
Result (decomposition) [5, 17]: No
Final Comp. [5, 18]: 99.99%
Result (decomposition) [5, 18]: No
Final Comp. [5, 19]: 99.997%
Result (decomposition) [5, 19]: No
Final Comp. [5, 20]: 99.997%
Result (decomposition) [5, 20]: No
Final Comp. [5, 21]: 99.98%
Result (decomposition) [5, 21]: No
Final Comp. [5, 22]: 99.98%
Result (decomposition) [5, 22]: No
Final Comp. [5, 23]: 99.99%
Result (decomposition) [5, 23]: No
decomposition [5, 24]: no decomposition
% sevoflurane by gas chromatography [5, 24]: 99.99%
decomposition [5, 25]: no decomposition
% sevoflurane by gas chromatography [5, 25]: 99.99%
decomposition [5, 26]: no decomposition
% sevoflurane by gas chromatography [5, 26]: 99.99%
Compound: FCOC(C(F)(F)F)C(F)(F)F [sevoflurane, 1,1,1,3,3,3-hexafluoroisopropyl fluoromethyl ether]
